# Measurements reported in ChEMBL document CHEMBL3785022, “Pharmacokinetics of cyclophosphamide and alkylating activity in man after intravenous and oral administration” (Br J Clin Pharmacol, 1979).
# Columns and labels:
# clinical [1] = conditions: human, plasma, iv, 11.3 mg/kg
# [2] = Apparent volume of distribution of central compartment in iv dosed lymphoma patient (6 patients) by two-compartmental open model; conditions: human, in vivo
# [3] = First order rate constant for slow elimination phase in iv dosed lymphoma patient (6 patients) by two-compartmental open model; conditions: human, in vivo
# clinical [4] = conditions: human, in vivo, iv, 11.3 mg/kg
# Description: Clearance in lymphoma patient at 11.3 mg/kg, iv by one compartment open model
# [5] = Renal clearance in lymphoma patient (7 patients); conditions: human, in vivo
# [6] = Elimination rate constant in po dosed lymphoma patient (7 patients) by one compartment open model; conditions: human, in vivo
# clinical [7] = conditions: human, in vivo, iv, 11.3 mg/kg; remark: listed apart in the source
# Description: Elimination rate constant in lymphoma patient at 11.3 mg/kg, iv by one compartment open model
# [8] = Half life in po dosed lymphoma patient (7 patients) by one compartment open model; conditions: human, in vivo
# clinical [9] = conditions: human, in vivo, iv, 11.3 mg/kg; remark: listed apart in the source
# Description: Volume of distribution in lymphoma patient at 11.3 mg/kg, iv by one compartment open model
# [10] = Apparent volume of distribution during terminal log-linear elimination phase in iv dosed lymphoma patient (6 patients) by two-compartmental open model; conditions: human, in vivo
# [11] = Clearance in po dosed lymphoma patient (7 patients) by one compartment open model; conditions: human, in vivo
# [12] = Elimination rate constant from central compartment in iv dosed lymphoma patient (6 patients) by two-compartmental open model; conditions: human, in vivo
# [13] = Drug excretion in po dosed lymphoma patient (7 patients) assessed as unchanged parent compound in urine; conditions: human
# [14] = Extraction ratio in lymphoma patient (7 patients); conditions: human, in vivo
# clinical [15] = conditions: human, in vivo, iv, 11.3 mg/kg; remark: listed apart in the source
# Description: Elimination half life in lymphoma patient at 11.3 mg/kg, iv by one compartment open model
smiles,measurement,setting,value
O=P1(N(CCCl)CCCl)NCCCO1 (stereo not given) [CYCLOPHOSPHAMIDE ANHYDROUS],C0,clinical [1],12500 ng/mL
same,Vd,[2],0.38 L/kg
same,k el,[3],2.53e-05 s⁻¹
same,clearance,clinical [4],1.62 mL/min/kg
same,CL renal,[5],0.08 mL/min/kg
same,k el,[6],6.03e-05 s⁻¹
same,k el,clinical [7],3e-05 s⁻¹
same,half-life,[8],3.93 h
same,Vd,clinical [9],0.9 L/kg
same,Vd,[10],0.71 L/kg
same,CL/F,[11],1.55 mL/min/kg
same,k el,[12],5.56e-05 s⁻¹
same,dose excreted,[13],1.8%
same,hepatic extraction ratio,[14],0.25
same,half-life,clinical [15],6.42 h
